Source: US6610741B1, “Skin cosmetic compositions containing a weak carboxylic acid and random copolymers of ethylene oxides and propylene oxides” (Unilever Home & Personal Care USA division of Conopco, Inc., priority 1999, dated 2003)

Tested on: contralateral nasolabial folds of subjects sensitive to glycolic acid
Test: in-vivo sting test (sting/burn propensity and forced choice)
Set-up: species or system human
Details: additive in Base Formula A + 8% glycolic acid, pH 3.8; result in words
Description: Procedure for in-vivo sting test: This was a randomized, double blind study where each subject evaluated one test formulation and a control formulation or two test formulations on contralateral nasolabial folds. […] A maximum of 20 qualified subjects (minimum of 15) were utilized in each subsequent test. One paired comparison was made on each testing day, with a minimum of 3 days between sting testing throughout the study. Subjects underwent a 15 second Ivory soap wash regime immediately prior to product testing for enhancing sting response. […] Study personnel then applied one test formulation and one control or test formulation simultaneously to the appropriate left/right test site, and gently but thoroughly rubbed in. Subjects compared the stinging potential of the two formulations, over a 7.5 minute period using a self-assessment questionnaire.
Sting/Burn Propensity: The degree of stinging/burning felt on the left and right inner cheek and crease of the nose was evaluated using the following scale at the times indicated in Tables below:
0-no stinging/burning; 1-very slight stinging/burning; 2-slight stinging/burning; 3- moderate stinging/burning; 4-moderately high stinging/burning; 5-high stinging/burning; 6-extreme stinging/burning. […]
Statistical significance was determined at p≦0.1.

`C[C@]12CCC(=O)C=C1CC[C@@H]1[C@@H]2[C@@H](O)C[C@@]2(C)[C@H]1CC[C@]2(O)C(=O)CO` [hydrocortisone] was tested. Which “effect of additive on sting of Base Formula A containing 8% glycolic acid” value did it give?
Its value is “neither hydrocortisone nor arabinogalactan reduced the sting”.
